The subject of one assay is Pseudomonas syringae. The assay can be described thus: Microplate based screening of bioactivity against Pseudomonas syringae. In kind it is cell-based. As to conditions: 10 μl of 250 ppm solution + 40 μl inoculum, activity grade x repeats x days of activity/168 x 100. As to the method: Pseudomonas Suspension Preparation: • 1) Grow Pseudomonas on LBA plates at 28° C. for 2 days to get a single colony • 2) Transfer a single colony using a sterile toothpick into a 50 ml sterile tube containing 5 ml LB and grow for 24 at 28° C. and 150 RPM • 3) Chill the tube in the fridge for 1 h • 4) Add 7.5 ml of fridge cold, sterile, glycerol solution to the tube—to get 60% glycerol solution • 5) Mix well but gently to get perfect mixing—use vortex at 1000 RPM • 6) Aliquot 100 μl of bacteria suspension in 60% glycerol into 1.5 ml tubes—each aliquot should be enough for screening of 10 microplates • 7) Store the bacteria suspension in 60% glycerol at −20° C.
Pseudomonas Suspension Preparation for Bioactivity Screening Experiment: • 1) Take 1.5 ml tube with 100 μl frozen Pseudomonas suspension from the freezer and thaw it on ice • 2) Prepare in the hood 50 ml tubes with 40 ml fridge cold LB • 3) Mix 40 μl of bacteria suspension with 40 ml fridge cold LB in a 50 ml tube. This amount is enough for activity screening of 10 microplates • 4) Use this suspension for bioactivity screening experiments […]

A further assay concerns Sclerotinia sclerotiorum. The assay can be described thus: Microplate based screening of bioactivity against Sclerotinia sclerotiorum. The class given is cell-based. The note with it: 10 μl of 250 ppm solution + 40 μl inoculum, activity grade x repeats x days of activity/252 x 100. The procedure: Diluted in DMSO purified Licochalcone C was added to microplate wells and mixed with 50 μl of hyphae suspension and growth of the fungus starting from blended hyphae was monitored by visual inspection. Dilute the inoculum stock 1:10 in PDBC—2 ml in 20 ml, or calculate the dilution needed, to prepare final concentration of 2000 CFU/ml. The final number of hyphae should be 100 CFU in each well. Microplate Preparation for Activity Experiment: • 1) Take a stock solution of purified 1% Licochalcone C in DMSO from the −20 freezer and thaw it on the bench. • 2) Take 1 μl of stock solution of 1% Licochalcone C and dilute up to 250 ppm with 39 μl of water. • 3) Take 10 μl of the diluted (250 ppm) Licochalcone C solution into the wells of the microplate using a multi-pipette. • 4) Add 40 μl of vigorously mixed spore suspension inoculum to the wells of the microplate using a multi-pipette. • 5) Seal the plate with transparent sealer • 6) Shake the plate for 10 min at 2000 RPM to mix the Licochalcone C with the hyphae suspension • 7) Centrifugate the plate at 1000RCF for is and stop to collect the liquid at the bottom of the plate. • 8) Collect the plates on the bench until all microplates are ready for incubation. • 9) Insert microplates into a plastic box and put the box in the incubator at 21° C. […]

Each structure is given as a SMILES string.

Consider `COc1c(/C=C/C(=O)c2ccc(O)cc2)ccc(O)c1CC=C(C)C` [Licochalcone C, (E)-3-[4-hydroxy-2-methoxy-3-(3-methylbut-2-enyl)phenyl]-1-(4-hydroxyphenyl)prop-2-en-1-one], for which the “Relative Activity value (%)” value is on record as 50% in the assay with Pseudomonas syringae and 13% in the assay with Sclerotinia sclerotiorum.

(Values after patent US20240049707A1, “PESTICIDE COMPOSITIONS OF LICOCHALCONE C” (METABOLIC INSIGHTS LTD., priority 2020, published 2024).)
